Legend:
[1] = test system: M14 cells; assay: Western blot of LC3B-I/LC3B-II (autophagy), M14; type: cell-based, Human; details: 72 h
Procedure: (§1) Western blot analyses of total protein extracts were performed as previously described. Immunodetection was performed using antibodies directed to poly (ADP-ribose) polymerase (PARP; BD Biosciences San Diego, CA, USA), LC3B (Cell Signaling Technology, Danvers, MA), HSP72/73 (Calbiochem, EMD Biosciences, La Jolla, CA), Bcl-2 (SC-509, Santa Cruz Biotechnology Inc, Dallas, TX, USA), Bcl-xL (SC-271121, Santa Cruz Biotechnology Inc), Mcl-1 (SC-12756, Santa Cruz Biotechnology Inc) α-tubulin (Santa Cruz Biotechnology Inc) actin (Sigma-Aldrich, St. Louis, Missouri, USA). Anti-rabbit or anti-mouse immunoglobulin G-horseradish peroxidase-conjugated antibodies (Amersham Biosciences, Freiburg, Germany) were used as secondary antibody. Images were acquired by Image Lab Software (Bio-Rad, Hercules, CA, USA), using a ChemiDoc System instrument (Bio-Rad). The densitometric evaluation was performed using Image J software and normalized with relative controls.
Figure 6 Analysis of autophagosome accumulation in M14 and H1299 cells after treatment with IS20 or IS21. Western blot analysis of LC3B-I and LC3B-II protein levels in (A) M14, and (B) H1299 cell lines untreated (Ctrl) or treated with IS20 or IS21 for 72 h at the indicated concentrations. (C) Western blot analysis of LC3B-I and LC3B-II levels in HL60 and U937 cell lines untreated (Ctrl) or treated with IS20 or IS21 (20 μM for 24 h). (A-C) Reported images are representative of two independent experiments with similar results. HSP72/73, Actin or α-Tubulin are shown as loading and transferring control. […] Ratio of LC3B-II on LC3B-I levels, after normalization on HSP72/73, Actin or α-Tubulin, is quantified by densitometric analysis. (D) (Upper panels) Representative images and (lower panels) relative quantification of fluorescence microscopic analysis of LC3B puncta positive cells in M14 EGFP-LC3B and H1299 EGFP-LC3B transfected cells, treated with IS20 or IS21 (20 µM for 72h). […] Cells with more than 10 puncta were considered autophagy-positive. p-values were calculated between untreated (Ctrl) and treated cells, * p < 0.05.

[2] = test system: M14 cells; assay: Western blot of PARP1 cleavage, M14; type: cell-based, Human; details: 72 h
Procedure: as §1
(§2) Figure 5 Analysis of apoptosis induction by IS20 and IS21 in leukemia, melanoma and NSCLC cells. […] (A-F) Reported images are representative of two independent experiments with similar results. HSP72/73 or α-Tubulin are shown as loading and transferring control. (G) Flow cytometric quantification of cells in the subG1 peak of cell cycle distribution by propidium iodide staining in HL60 cell line treated with IS20 or IS21 (20 μM for 24 h) and in M14, H1299 and MDA-MB-231 cell lines treated with IS20 or IS21 (20 μM for 72 h). Data are reported as mean ± SD of three independent experiments. p-values were calculated between control (Ctrl) and treated cells, * p < 0.05. (H) Flow cytometric quantification of cells in the subG1 peak by propidium iodide staining in M14 and H1299 cell lines treated with IS20 or IS21 (20 μM, 72 h) in presence or absence of the pan caspase inhibitor z-VAD (50 μM). p-values were calculated between treated control (Ctrl) cells, # p < 0.01, ## p < 0.001 or between cells treated with IS20 or IS21 alone or in combination with z-VAD, * p < 0.05, ** p < 0.005. (G-H) Data are reported as mean of two (H) or three (G) experiments ± SD.

[3] = test system: HL60 cells; assay: Flow cytometry subG1 peak (PI staining), HL60; type: cell-based, Human; details: 20 µM for 24 h
Procedure: Flow cytometric analysis (BD Accuri™ C6, BD Biosciences) was performed to evaluate cell cycle distribution by propidium iodide (PI) staining, and cell viability by using the PI dye exclusion assay as previously reported.
as §2

[4] = test system: U937 xenografts; assay: In vivo tumor growth, U937 xenografts; set-up: species or system athymic CD1 nude mice
Procedure: (§3) All procedures involving mice and their care were authorized and certified by the decree no. 67/97A of the Italian Minister of Health and protocol 2560/97 of the Rome Health Service Unit (ASL RMB). Regina Elena National Cancer Institute approved all the procedures involving animals. 5 x 10^6 U937 (in 50% Matrigel, Corning, NY, USA) or A375 cells were subcutaneously injected in the right flank of 6-8-week-old female immunodeficient athymic CD1 nude mice. IS21 was dissolved in 10% DMSO, 30% PEG400 and 60% NaCl (vehicle). Intraperitoneal treatment of vehicle or IS21 (8 mice for each group) every 24 h started when tumors reached the palpability (6 days for U937 and 7 days for A375 cells). […] Animals were observed daily, weighted two times/week and tumor volume (mm^3) calculated as length × width^2 × π/6. At the end of the treatment the tumors were collected and weighed.
Based on pharmacokinetic analysis, we next evaluated the effect of IS21 on in vivo tumor growth of leukemic and melanoma derived xenografts. To this aim, U937 were injected subcutaneously and treated for two weeks with vehicle or with IS21 (70 mg/kg or 100 mg/kg, 5 days/week).
Figure 9 Analysis in vivo of the effect of IS21 on both leukemia and melanoma models. Analysis of in vivo tumor growth in nude mice injected with (A) U937 and (B) A375 cells and treated with vehicle or with IS21 at the indicated concentrations for (A) two or (B) three weeks. Experiments were repeated twice. * p < 0.05, *** p < 0.0002, **** p < 0.0001.

[5] = test system: A375 melanoma xenografts; assay: In vivo tumor growth, A375 xenografts; details: i.p. 100 mg/kg, 5 days/week
Procedure: as §3
In particular, mice injected with A375 melanoma cells were treated with vehicle or with IS21 (100 mg/kg, 5 days/week) for three weeks.
Experiments were repeated
426 twice. 4 animals/group. * p < 0.01, ** p < 0.001, *** p < 0.0001. (B) Representative images of
427 explanted tumors of two independent experiments. The scale bar represents 1 cm. (C) Analysis of
(D) Anal ysis of mice weight after the in vivo ex periment perform ed
430 as reported in (A). ( A,C, D) D ata are report ed as mean ± SD of two indep endent ex periments. […]

CCCCOc1ccc(C2/C(=C(\O)c3ccc4c(c3)CC(C)O4)C(=O)C(=O)N2c2nnc(SCc3ccc(Cl)cc3)s2)cc1OCC (stereo not shown) [IS20]
ratio of LC3B-II on LC3B-I / LC3B-II protein level, M14 [1]: higher level | PARP1 cleavage, M14 [2]: cleavage of PARP1 | subG1 peak of cell cycle distribution, HL60 [3]: presence of subG1 peak

CCCCCOc1ccc(C2/C(=C(\O)c3ccc4c(c3)CC(C)O4)C(=O)C(=O)N2c2nnc(SCc3ccc(Cl)cc3)s2)cc1OCC (stereo not shown) [IS21]
delay of tumor growth ([4]; U937, 100 mg/kg until day 22, compared with control or 70 mg/kg): about 11 days | growth of U937 xenografts ([4]; i.p. 70 mg/kg or 100 mg/kg, 5 days/week, two weeks): reduced significantly | day after cell injection from which U937 xenograft growth is significantly reduced ([4]; i.p. 70 mg/kg, 5 days/week, two weeks): 19 days | day after cell injection from which U937 xenograft growth is significantly reduced ([4]; i.p. 100 mg/kg, 5 days/week, two weeks): 16 days | ratio of LC3B-II on LC3B-I / LC3B-II protein level, M14 [1]: higher level | PARP1 cleavage, M14 [2]: cleavage of PARP1 | day after cell injection from which A375 tumor growth is reduced ([5]; three weeks): 22 days | in vivo tumor growth of A375 ([5]; three weeks): strongly reduced | tolerability of treatment (weight loss, diet consumption, postural and behavioral changes) ([5]; tumor-bearing nude mice): highly tolerated | subG1 peak of cell cycle distribution, HL60 [3]: presence of subG1 peak
